Reference: PubChem BioAssay AID1259407 (Chemical Carcinogenesis Research Information System (CCRIS), 2018)
The source made the active and inactive calls. No rule for the calls is given here.

System: CCRIS mutagenicity, Ames/micronucleus/aberration tests
Assay: CCRIS mutagenicity studies
[1] = Test System: AMES SALMONELLA TYPHIMURIUM, Strain/Indicator: TA98, Metabolic Activation: HAMSTER, LIVER, S-9, AROCLOR 1254 (10%), Method: PREINCUBATION
[2] = Test System: AMES SALMONELLA TYPHIMURIUM, Strain/Indicator: TA98, Metabolic Activation: NONE, Method: PREINCUBATION
[3] = Test System: AMES SALMONELLA TYPHIMURIUM, Strain/Indicator: TA98, Metabolic Activation: RAT, LIVER, S-9, AROCLOR 1254 (10%), Method: PREINCUBATION
[4] = Test System: AMES SALMONELLA TYPHIMURIUM, Strain/Indicator: TA100, Metabolic Activation: HAMSTER, LIVER, S-9, AROCLOR 1254 (10%), Method: PREINCUBATION
[5] = Test System: AMES SALMONELLA TYPHIMURIUM, Strain/Indicator: TA100, Metabolic Activation: NONE, Method: PREINCUBATION
[6] = Test System: AMES SALMONELLA TYPHIMURIUM, Strain/Indicator: TA100, Metabolic Activation: RAT, LIVER, S-9, AROCLOR 1254 (10%), Method: PREINCUBATION
[7] = Test System: AMES SALMONELLA TYPHIMURIUM, Strain/Indicator: TA1535, Metabolic Activation: HAMSTER, LIVER, S-9, AROCLOR 1254 (10%), Method: PREINCUBATION
[8] = Test System: AMES SALMONELLA TYPHIMURIUM, Strain/Indicator: TA1535, Metabolic Activation: NONE, Method: PREINCUBATION
[9] = Test System: AMES SALMONELLA TYPHIMURIUM, Strain/Indicator: TA1535, Metabolic Activation: RAT, LIVER, S-9, AROCLOR 1254 (10%), Method: PREINCUBATION
[10] = Test System: AMES SALMONELLA TYPHIMURIUM, Strain/Indicator: TA1537, Metabolic Activation: HAMSTER, LIVER, S-9, AROCLOR 1254 (10%), Method: PREINCUBATION
[11] = Test System: AMES SALMONELLA TYPHIMURIUM, Strain/Indicator: TA1537, Metabolic Activation: NONE, Method: PREINCUBATION
[12] = Test System: AMES SALMONELLA TYPHIMURIUM, Strain/Indicator: TA1537, Metabolic Activation: RAT, LIVER, S-9, AROCLOR 1254 (10%), Method: PREINCUBATION
[13] = Test System: AMES SALMONELLA TYPHIMURIUM, Strain/Indicator: TA98, Metabolic Activation: RAT, LIVER, S-9, AROCLOR 1254, Method: STANDARD PLATE
[14] = Test System: AMES SALMONELLA TYPHIMURIUM, Strain/Indicator: TA100, Metabolic Activation: NONE, Method: STANDARD PLATE
[15] = Test System: AMES SALMONELLA TYPHIMURIUM, Strain/Indicator: TA100, Metabolic Activation: RAT, LIVER, S-9, AROCLOR 1254, Method: STANDARD PLATE

SMILES	mutagenic call [1]	mutagenic call [2]	mutagenic call [3]	mutagenic call [4]	mutagenic call [5]	mutagenic call [6]	mutagenic call [7]	mutagenic call [8]	mutagenic call [9]	mutagenic call [10]	mutagenic call [11]	mutagenic call [12]	further results
CNC[C@H](O)c1ccc(O)c(O)c1	inactive; negative	inactive; negative	inactive; negative	inactive; negative	inactive; negative	inactive; negative	inactive; negative	inactive; negative	inactive; negative	inactive; negative	inactive; negative	inactive; negative	–
O=C1N(CO)C(O)C(O)N1CO (centres undefined)	inactive; negative	–	inactive; negative	–	inactive; negative	–	inactive; negative	inactive; negative	inactive; negative	inactive; negative	inactive; negative	inactive; negative	mutagenic call (Test System: AMES SALMONELLA TYPHIMURIUM, Strain/Indicator: TA98, Metabolic Activation: HAMSTER, LIVER, AROCLOR 1254 (10%), Method: PREINCUBATION): inactive; negative
O=c1cccccc1O	–	–	–	–	–	–	–	–	–	–	–	–	mutagenic call (Test System: MOUSE LYMPHOMA, Strain/Indicator: L5178Y (TK+/TK-), Metabolic Activation: NONE, Method: SUSPENSION/PLATE): active; positive. reevaluation of results: positive; mutagenic call (Test System: MOUSE LYMPHOMA, Strain/Indicator: L5178Y (TK+/TK-), Metabolic Activation: RAT, LIVER, S-9, AROCLOR 1254, Method: SUSPENSION/PLATE): inactive; positive. reevaluation of results: negative
CCCCCC(=O)CC	–	–	–	–	–	–	–	–	–	–	–	–	mutagenic call (Test System: CHINESE HAMSTER V-79, Strain/Indicator: V-79 (HPRT)/6-THIOGUANINE, Metabolic Activation: NONE, Method: STANDARD PLATE): inactive; negative; mutagenic call (Test System: CHINESE HAMSTER V-79, Strain/Indicator: V-79 (HPRT)/6-THIOGUANINE, Metabolic Activation: RAT LIVER S-9, Method: STANDARD PLATE): inactive; negative
N[C@@H](Cc1ccccc1)C(=O)O	–	–	–	–	–	–	–	–	–	–	–	–	mutagenic call (Test System: AMES SALMONELLA TYPHIMURIUM, Strain/Indicator: TA98, Metabolic Activation: NONE, Method: STANDARD PLATE): inactive; negative; mutagenic call [13]: inactive; negative; mutagenic call [14]: inactive; negative; mutagenic call [15]: inactive; negative
CC(=O)Nc1ccc(Oc2c(Cl)cc(Cl)cc2Cl)cc1	–	–	–	–	–	–	–	–	–	–	–	–	mutagenic call [13]: inactive; negative; mutagenic call (Test System: AMES SALMONELLA TYPHIMURIUM, Strain/Indicator: TA98, Metabolic Activation: S-9, Method: STANDARD PLATE): inactive; negative; mutagenic call [14]: inactive; negative; mutagenic call [15]: active; positive; mutagenic call (Test System: AMES SALMONELLA TYPHIMURIUM, Strain/Indicator: TA100, Metabolic Activation: RAT, LIVER, S-9, KANECLOR 500, Method: STANDARD PLATE): active; positive; mutagenic call (Test System: AMES SALMONELLA TYPHIMURIUM, Strain/Indicator: TA100, Metabolic Activation: S-9, Method: STANDARD PLATE): active; positive; mutagenic call (Test System: AMES SALMONELLA TYPHIMURIUM, Strain/Indicator: YG1021, Metabolic Activation: RAT, LIVER, S-9, AROCLOR 1254, Method: STANDARD PLATE): inactive; negative; mutagenic call (Test System: AMES SALMONELLA TYPHIMURIUM, Strain/Indicator: YG1021, Metabolic Activation: S-9, Method: STANDARD PLATE): inactive; negative; mutagenic call (Test System: AMES SALMONELLA TYPHIMURIUM, Strain/Indicator: YG1024, Metabolic Activation: RAT, LIVER, S-9, AROCLOR 1254, Method: STANDARD PLATE): active; positive; mutagenic call (Test System: AMES SALMONELLA TYPHIMURIUM, Strain/Indicator: YG1024, Metabolic Activation: S-9, Method: STANDARD PLATE): active; positive; mutagenic call (Test System: AMES SALMONELLA TYPHIMURIUM, Strain/Indicator: YG1026, Metabolic Activation: RAT, LIVER, S-9, AROCLOR 1254, Method: STANDARD PLATE): active; positive; mutagenic call (Test System: AMES SALMONELLA TYPHIMURIUM, Strain/Indicator: YG1026, Metabolic Activation: S-9, Method: STANDARD PLATE): active; positive; mutagenic call (Test System: AMES SALMONELLA TYPHIMURIUM, Strain/Indicator: YG1029, Metabolic Activation: RAT, LIVER, S-9, AROCLOR 1254, Method: STANDARD PLATE): active; positive; mutagenic call (Test System: AMES SALMONELLA TYPHIMURIUM, Strain/Indicator: YG1029, Metabolic Activation: S-9, Method: STANDARD PLATE): active; positive
Oc1ccc(Cl)cc1Cc1ccccc1	inactive; negative	inactive; negative	inactive; negative	inactive; negative	inactive; negative	inactive; negative	inactive; negative	inactive; negative	inactive; negative	inactive; negative	inactive; negative	inactive; negative	–
CC(=C\C1=CCOC1=O)/C=C(C)/C=C/C=C(\C)C(=O)[C@]12O[C@H]1[C@@](O)(CCO)NC2=O	–	–	–	–	active; positive	–	–	–	–	–	–	–	–
FC(F)(F)CC(F)(F)F	–	–	–	–	–	–	–	–	–	–	–	–	mutagenic call (Test System: AMES SALMONELLA TYPHIMURIUM, Strain/Indicator: TA97, Metabolic Activation: NONE, Method: CLOSED GLASS VESSEL): inactive; negative; mutagenic call (Test System: AMES SALMONELLA TYPHIMURIUM, Strain/Indicator: TA97, Metabolic Activation: RAT LIVER S-9, AROCLOR 1254, Method: CLOSED GLASS VESSEL): inactive; negative; mutagenic call (Test System: AMES SALMONELLA TYPHIMURIUM, Strain/Indicator: TA98, Metabolic Activation: NONE, Method: CLOSED GLASS VESSEL): inactive; negative; mutagenic call (Test System: AMES SALMONELLA TYPHIMURIUM, Strain/Indicator: TA98, Metabolic Activation: RAT LIVER S-9, AROCLOR 1254, Method: CLOSED GLASS VESSEL): inactive; negative; mutagenic call (Test System: AMES SALMONELLA TYPHIMURIUM, Strain/Indicator: TA100, Metabolic Activation: NONE, Method: CLOSED GLASS VESSEL): inactive; negative; mutagenic call (Test System: AMES SALMONELLA TYPHIMURIUM, Strain/Indicator: TA100, Metabolic Activation: RAT LIVER S-9, AROCLOR 1254, Method: CLOSED GLASS VESSEL): inactive; negative; mutagenic call (Test System: AMES SALMONELLA TYPHIMURIUM, Strain/Indicator: TA1535, Metabolic Activation: NONE, Method: CLOSED GLASS VESSEL): inactive; negative; mutagenic call (Test System: AMES SALMONELLA TYPHIMURIUM, Strain/Indicator: TA1535, Metabolic Activation: RAT LIVER S-9, AROCLOR 1254, Method: CLOSED GLASS VESSEL): inactive; negative; mutagenic call (Test System: ESCHERICHIA COLI, Strain/Indicator: WP2 UVR A, Metabolic Activation: NONE, Method: CLOSED GLASS VESSEL): inactive; negative; mutagenic call (Test System: ESCHERICHIA COLI, Strain/Indicator: WP2 UVR A, Metabolic Activation: RAT LIVER S-9, AROCLOR 1254, Method: CLOSED GLASS VESSEL): inactive; negative
CCCCN(CCO)CCCC	inactive; negative	inactive; negative	inactive; negative	inactive; negative	inactive; negative	inactive; negative	inactive; negative	inactive; negative	inactive; negative	inactive; negative	inactive; negative	inactive; negative	–
